Data as given in ChEMBL document CHEMBL5346940, “Design, synthesis and biological evaluation of dual Topo II/HDAC inhibitors bearing pyrimido[5,4-b]indole and pyrazolo[3,4-d]pyrimidine motifs” (Eur J Med Chem, 2023).
Active and inactive are the calls of the source. The rule behind the calls is not given here.

Columns and labels:
U-937 = assay: Antiproliferative activity against human U-937 cells assessed as reduction in cell viability measured for 48 hrs by MTT assay; format: functional, cell-based; conditions: U-937, 48 h
MGC-803 = assay: Antiproliferative activity against human MGC-803 cells assessed as reduction in cell viability measured for 48 hrs by MTT assay; format: functional, cell-based; conditions: MGC-803, 48 h
[1] = target: DNA topoisomerase 2-alpha (Homo sapiens) (UniProt P11388); assay: Inhibition of human topoisomerase 2 assessed as relaxation of pBR322 plasmid DNA at 100 uM measured after 30 mins by ethidium bromide staining based UV transilluminator analysis
Sequence of DNA topoisomerase 2-alpha (Homo sapiens) (P11388 whole entry): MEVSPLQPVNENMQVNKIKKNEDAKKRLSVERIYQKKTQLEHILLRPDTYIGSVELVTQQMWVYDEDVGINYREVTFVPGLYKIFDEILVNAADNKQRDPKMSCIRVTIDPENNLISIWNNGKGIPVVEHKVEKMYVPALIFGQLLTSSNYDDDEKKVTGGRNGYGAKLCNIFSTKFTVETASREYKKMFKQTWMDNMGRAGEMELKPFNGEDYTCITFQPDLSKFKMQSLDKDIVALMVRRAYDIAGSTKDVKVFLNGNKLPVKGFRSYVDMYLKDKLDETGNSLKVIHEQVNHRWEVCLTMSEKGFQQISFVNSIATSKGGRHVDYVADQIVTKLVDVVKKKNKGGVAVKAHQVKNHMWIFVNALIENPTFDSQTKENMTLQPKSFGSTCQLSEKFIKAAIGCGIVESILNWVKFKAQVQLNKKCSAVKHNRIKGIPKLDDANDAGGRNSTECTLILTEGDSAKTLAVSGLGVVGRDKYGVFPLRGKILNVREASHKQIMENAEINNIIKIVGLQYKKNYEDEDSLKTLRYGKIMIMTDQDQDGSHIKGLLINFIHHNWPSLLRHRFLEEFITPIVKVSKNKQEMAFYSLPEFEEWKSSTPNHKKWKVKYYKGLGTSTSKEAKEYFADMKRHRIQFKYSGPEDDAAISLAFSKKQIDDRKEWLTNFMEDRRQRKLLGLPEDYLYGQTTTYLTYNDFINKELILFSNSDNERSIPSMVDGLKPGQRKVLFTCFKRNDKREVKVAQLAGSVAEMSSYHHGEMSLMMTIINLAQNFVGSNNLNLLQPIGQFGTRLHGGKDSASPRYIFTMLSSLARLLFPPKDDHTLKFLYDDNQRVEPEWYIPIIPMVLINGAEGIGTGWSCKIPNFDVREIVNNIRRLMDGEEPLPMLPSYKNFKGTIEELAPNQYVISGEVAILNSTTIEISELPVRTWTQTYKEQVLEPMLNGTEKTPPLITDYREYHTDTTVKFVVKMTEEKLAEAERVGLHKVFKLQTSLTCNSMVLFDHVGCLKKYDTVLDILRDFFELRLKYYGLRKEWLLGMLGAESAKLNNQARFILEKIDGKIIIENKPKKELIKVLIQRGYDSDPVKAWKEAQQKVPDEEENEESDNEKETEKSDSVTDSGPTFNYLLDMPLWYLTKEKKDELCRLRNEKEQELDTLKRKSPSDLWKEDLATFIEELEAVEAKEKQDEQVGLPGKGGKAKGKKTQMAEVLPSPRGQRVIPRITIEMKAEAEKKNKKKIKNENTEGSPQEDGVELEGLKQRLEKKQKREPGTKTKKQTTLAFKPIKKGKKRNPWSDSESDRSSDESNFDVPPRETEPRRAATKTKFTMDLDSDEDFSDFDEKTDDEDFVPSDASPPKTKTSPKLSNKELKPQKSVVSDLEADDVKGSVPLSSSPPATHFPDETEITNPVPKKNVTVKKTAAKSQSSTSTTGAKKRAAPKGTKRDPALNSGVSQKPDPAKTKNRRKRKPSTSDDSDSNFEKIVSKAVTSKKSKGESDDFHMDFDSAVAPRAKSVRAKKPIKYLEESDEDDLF

MCF7 [2] = assay: Antiproliferative activity against human MCF7 cells assessed as reduction in cell viability measured for 48 hrs by MTT assay; format: functional, cell-based; conditions: MCF7, 48 h
MCF7 [3] = assay: Induction of apoptosis in human MCF7 cells assessed as cell depletion at 10 uM incubated for 48 hrs by AO/EB staining based fluorescence microscopic analysis; format: functional
MCF7 [4] = assay: Induction of apoptosis in human MCF7 cells assessed as early apoptotic cells at 5 uM incubated for 48 hrs by AnnexinV-FITC/propidium iodide staining based flow cytometry analysis (reference value: 0.28 %); format: functional
MCF7 [5] = assay: cells; format: functional; conditions: Homo sapiens, time 48 hrs
Description: Inhibition of cell migration in human MCF7 cells assessed as reduction in cell migration at 2.5 uM measured for 48 hrs by wound healing assay based microscopic analysis (Rvb = 70.25%)

MCF7 [6] = assay: Induction of apoptosis in human MCF7 cells assessed as viable cells at 5 uM incubated for 48 hrs by AnnexinV-FITC/propidium iodide staining based flow cytometry analysis (reference value: 99.2 %); format: functional; conditions: read-out: Activity
MCF7 [7] = assay: Induction of apoptosis in human MCF7 cells assessed as necrotic cells at 20 uM incubated for 48 hrs by AnnexinV-FITC/propidium iodide staining based flow cytometry analysis (reference value: 0.55 %); format: functional
MCF7 [8] = assay: cells; format: functional; conditions: Homo sapiens, time 48 hrs; remark: listed apart in the source
Description: Inhibition of cell migration in human MCF7 cells assessed as reduction in cell migration at 1 uM measured for 48 hrs by wound healing assay based microscopic analysis (Rvb = 70.25%)

MCF7 [9] = assay: Induction of apoptosis in human MCF7 cells assessed as viable cells at 20 uM incubated for 48 hrs by AnnexinV-FITC/propidium iodide staining based flow cytometry analysis (reference value: 99.2 %); format: functional; conditions: read-out: Activity
MCF7 [10] = assay: Induction of apoptosis in human MCF7 cells assessed as late apoptotic cells at 10 uM incubated for 48 hrs by AnnexinV-FITC/propidium iodide staining based flow cytometry analysis (reference value: 0.015 %); format: functional
MCF7 [11] = assay: Induction of apoptosis in human MCF7 cells assessed as appearance of rounded cells at 10 uM incubated for 48 hrs by AO/EB staining based fluorescence microscopic analysis; format: functional, cell-based
MCF7 [12] = assay: Induction of apoptosis in human MCF7 cells assessed as necrotic cells at 5 uM incubated for 48 hrs by AnnexinV-FITC/propidium iodide staining based flow cytometry analysis (reference value: 0.55 %); format: functional
MCF7 [13] = assay: Induction of apoptosis in human MCF7 cells assessed as necrotic cells at 10 uM incubated for 48 hrs by AnnexinV-FITC/propidium iodide staining based flow cytometry analysis (reference value: 0.55 %); format: functional
MCF7 [14] = assay: Inhibition of cell migration in human MCF7 cells assessed as reduction in cell migration at 5 uM measured for 48 hrs by wound healing assay based microscopic analysis (reference value: 70.25%); format: functional
[15] = target: T1, DNA topoisomerase 1 (Homo sapiens) (UniProt P11387); assay: Inhibition of human topoisomerase 1 assessed as relaxation of pBR322 plasmid DNA at 100 uM measured after 30 mins by agarose gel electrophoresis analysis
T1 sequence (whole entry): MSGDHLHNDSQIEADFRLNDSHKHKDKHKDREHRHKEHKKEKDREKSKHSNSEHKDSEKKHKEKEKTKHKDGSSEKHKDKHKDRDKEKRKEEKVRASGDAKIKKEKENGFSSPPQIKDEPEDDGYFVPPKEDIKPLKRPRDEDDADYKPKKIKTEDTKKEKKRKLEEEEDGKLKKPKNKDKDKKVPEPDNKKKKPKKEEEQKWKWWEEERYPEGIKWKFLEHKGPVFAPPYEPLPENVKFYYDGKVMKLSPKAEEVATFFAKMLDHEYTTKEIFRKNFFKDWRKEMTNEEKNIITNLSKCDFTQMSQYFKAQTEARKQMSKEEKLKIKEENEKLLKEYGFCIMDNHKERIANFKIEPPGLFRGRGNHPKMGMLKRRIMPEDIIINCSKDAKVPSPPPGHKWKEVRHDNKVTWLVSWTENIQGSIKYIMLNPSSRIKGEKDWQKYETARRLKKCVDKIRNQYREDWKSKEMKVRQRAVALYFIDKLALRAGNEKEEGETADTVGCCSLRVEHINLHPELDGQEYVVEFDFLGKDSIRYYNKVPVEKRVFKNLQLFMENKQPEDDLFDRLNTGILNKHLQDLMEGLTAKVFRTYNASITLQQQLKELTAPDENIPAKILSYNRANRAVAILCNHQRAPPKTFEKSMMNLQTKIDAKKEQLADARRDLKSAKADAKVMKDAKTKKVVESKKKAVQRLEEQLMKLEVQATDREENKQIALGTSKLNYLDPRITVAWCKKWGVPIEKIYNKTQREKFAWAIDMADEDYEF

Histone deacetylase = assay: Inhibition of HDAC in human HeLa nuclear extract measured after 30 mins by fluorescence based assay; format: cell-free
MCF7 [16] = assay: Induction of apoptosis in human MCF7 cells assessed as late apoptotic cells at 20 uM incubated for 48 hrs by AnnexinV-FITC/propidium iodide staining based flow cytometry analysis (reference value: 0.015 %); format: functional
MCF7 [17] = assay: Induction of apoptosis in human MCF7 cells assessed as late apoptotic cells at 5 uM incubated for 48 hrs by AnnexinV-FITC/propidium iodide staining based flow cytometry analysis (reference value: 0.015 %); format: functional
MCF7 [18] = assay: Induction of apoptosis in human MCF7 cells assessed as early apoptotic cells at 20 uM incubated for 48 hrs by AnnexinV-FITC/propidium iodide staining based flow cytometry analysis (reference value: 0.28 %); format: functional
NIH3T3 = assay: Antiproliferative activity against mouse 3T3 cells assessed as reduction in cell viability at 100 uM measured for 48 hrs by MTT assay relative to control; format: toxicity, cell-based; conditions: nih3t3, 48 h
MCF7 [19] = assay: Induction of apoptosis in human MCF7 cells assessed as cell shrinkage at 10 uM incubated for 48 hrs by AO/EB staining based fluorescence microscopic analysis; format: functional
MCF7 [20] = assay: Induction of apoptosis in human MCF7 cells assessed as viable cells at 10 uM incubated for 48 hrs by AnnexinV-FITC/propidium iodide staining based flow cytometry analysis (reference value: 99.2 %); format: functional; conditions: read-out: Activity
MCF7 [21] = assay: Induction of apoptosis in human MCF7 cells assessed as early apoptotic cells at 10 uM incubated for 48 hrs by AnnexinV-FITC/propidium iodide staining based flow cytometry analysis (reference value: 0.28 %); format: functional
[22] = target: DNA topoisomerase 2-alpha (Homo sapiens) (UniProt P11388); assay: Poison activity at human topoisomerase 2 assessed as stabilization of enzyme-DNA cleavage complex by measuring linear DNA formation at 100 uM incubated for 6 mins by EtBr staining based UV light analysis

IC50 (U-937) [µM] | IC50 (MGC-803) [µM] | topoisomerase II inhibition (active/inactive) [1] | inhibition (active/inactive call) [15] | IC50 (Histone deacetylase) [µM] | SMILES | Activity (MCF7 [3]) | Activity (MCF7 [4]) [%] | inhibition at 2.5 µM (MCF7 [5]) [%] | viability at 5 µM (MCF7 [6]) [%] | Activity (MCF7 [7]) [%] | inhibition at 1 µM (MCF7 [8]) [%] | viability at 20 µM (MCF7 [9]) [%] | Activity (MCF7 [10]) [%] | Activity (MCF7 [11]) | Activity (MCF7 [12]) [%] | Activity (MCF7 [13]) [%] | inhibition at 5 µM (MCF7 [14]) [%] | Activity (MCF7 [16]) [%] | Activity (MCF7 [17]) [%] | Activity (MCF7 [18]) [%] | other results
24.6 | 12.3 | Active | Active | 5.9 | CCn1c(SCCCCC(=O)NO)nc2c([nH]c3ccccc32)c1=O | Active | 4.86 | 56.4 | 93.4 | 0.48 | 65.4 | 53.7 | 6.9 | Active | 0.6 | 0.3 | 29.7 | 17.1 | 1.16 | 28.8 | IC50 (MCF7 [2]): 18.3 µM; Activity (NIH3T3): 38.7%; Activity (MCF7 [19]): Active; viability at 10 µM (MCF7 [20]): 78.7%; Activity (MCF7 [21]): 14.1%
28.5 | 9.59 | Active | Active | 4.67 | O=C(CCCCSc1nc2c([nH]c3ccccc32)c(=O)[nH]1)NO | Active | 10.4 | 32.3 | 83.4 | 0.54 | 58.5 | 45.5 | 12.1 | Active | 0.3 | 0.67 | 19.3 | 24.9 | 5.88 | 29 | Activity (NIH3T3): 7.62%; Activity (MCF7 [19]): Active; viability at 10 µM (MCF7 [20]): 60.6%; Activity [22]: Active; Activity (MCF7 [21]): 26.6%
